Test results from patent US8541406B2, “Thiadiazole derivatives for the treatment of neurodegenerative diseases” (NV reMYND, priority 2006, dated 2013).
“Also recorded” adds a separate entry of the source.

Each compound was assayed on M17-SYNwt cells (assay: α-synuclein cytotoxicity assay (LDH leakage from paraquat-treated cells)). Conditions: Homo sapiens; Table 3, tested according to the procedure of example 12.
Format: cell-based, human
Experimental: 1,2,4-thiadazole compounds made according to the methods described herein were screened for activity using the α-synuclein cytotoxicity assay as described above. Dose responses were carried out on all compounds found to be active (10 point curves in duplicate).
`O=S(=O)(c1cccs1)N1CCN(c2nc(Cc3ccc(F)cc3)ns2)CC1` [Example 50, 1-[thiophen-2-ylsulfonyl]-4-[3-(4-fluoro-benzyl)-1,2,4-thiadiazol-5-yl]piperazine] was tested, and the EC50 was 468 nM.

Same assay, conditions: Homo sapiens; inhibition of synuclein cytotoxicity, paraquat-treated M17-SYNwt cells, 10 point curves in duplicate
`COc1ccc(S(=O)(=O)N2CCN(c3nc(Cc4cccc(OC)c4)ns3)CC2)cc1` [Compound 53, 1-[4-methoxyphenylsulfonyl]-4-[3-(3-methoxybenzyl)-1,2,4-thiadiazol-5-yl]piperazine] showed an EC50 of 0.00066 µg/mL.
Compound `CC1CN(c2nc(Cc3ccc(F)cc3)ns2)CCN1C(=O)c1cccc(Br)c1` (stereo not drawn) [Compound 142, 1-(3-bromobenzoyl)-4-[3-(4-fluorobenzyl)-1,2,4-thiadiazol-5-yl]-2-methylpiperazine] has an EC50 of 0.5 µg/mL.
`COc1ccc(S(=O)(=O)N2CCN(c3nc(Cc4ccc(F)c(C)c4)ns3)CC2)cc1` [Compound 204] gave an EC50 of 0.001 µg/mL.
`O=S(=O)(c1ccc(O)cc1)N1CCN(c2nc(Cc3ccc(F)cc3)ns2)CC1` [Compound 217, 1-(4-hydroxybenzenesulfonyl)-4-[3-(4-fluoro-benzyl)-1,2,4-thiadiazol-5-yl]piperazine] gave an EC50 of 0.033 µg/mL.
Work on `Cc1ccc(Cc2nsc(N3CCN(S(=O)(=O)c4cc(Cl)ccc4Cl)C(C)C3)n2)cc1` (stereo not drawn) [Compound 36, 1-[2,5-dichlorophenylsulfonyl]-4-[3-(4-methylbenzyl)-1,2,4-thiadiazol-5-yl]-2-methylpiperazine] yielded an EC50 of 0.1 µg/mL.
`CC1CN(c2nc(Cc3ccc(F)cc3)ns2)CCN1C(=O)CCc1ccccc1` (stereo not drawn) [Compound 89, 1-(3-phenylpropanoyl)-4-[3-(4-fluorobenzyl)-1,2,4-thiadiazol-5-yl]-2-methylpiperazine] gave an EC50 of 0.6 µg/mL.
For `Cc1cccc(C)c1NC(=O)N1CCN(c2nc(Cc3ccc(F)cc3)ns2)CC1C` (stereo not drawn) [Compound 19, N-(2,6-dimethylphenyl)-4-[3-(4-fluorobenzyl)-1,2,4-thiadiazol-5-yl]-2-methylpiperazine-1-carboxamide], the EC50 was 0.2 µg/mL.
Work on `Cc1ccc(C(=O)N2CCN(c3nc(Cc4ccc(F)cc4)ns3)CC2C)cc1` (stereo not drawn) [Compound 139, 1-(4-methylbenzoyl)-4-[3-(4-fluorobenzyl)-1,2,4-thiadiazol-5-yl]-2-methylpiperazine] yielded an EC50 of 0.4 µg/mL.
Compound `O=S(=O)(c1ccc2ccccc2c1)N1CCN(c2nc(Cc3ccc(Cl)cc3)ns2)CC1` [Compound 52, 1-[2-naphthylsulfonyl]-4-[3-(4-chlorobenzyl)-1,2,4-thiadiazol-5-yl]piperazine] has an EC50 of 0.1 µg/mL.
Compound `CCCCCCc1ccc(C(=O)NCCN2CCN(c3nc(Cc4ccc(F)cc4)ns3)CC2)cc1` [Compound 96, 4-hexyl-N-{2-[4-[3-(4-fluorobenzyl)-1,2,4-thiadiazol-5-yl]piperazin-1-yl]ethyl}benzamide] has an EC50 of 0.8 µg/mL.
In the case of `Cc1ccccc1NC(=O)N1CCN(c2nc(Cc3ccc(F)cc3)ns2)CC1C` (stereo not drawn) [Compound 10, N-(2-methylphenyl)-4-[3-(4-fluorobenzyl)-1,2,4-thiadiazol-5-yl]-2-methylpiperazine-1-carboxamide], the EC50 is reported as 0.6 µg/mL.
In the case of `CC1CN(c2nc(Cc3ccc(F)cc3)ns2)CCN1S(=O)(=O)c1cccc(C(F)(F)F)c1` (stereo not drawn) [Compound 46, 1-[3-trifluorophenylsulfonyl]-4-[3-(4-fluorobenzyl)-1,2,4-thiadiazol-5-yl]-2-methylpiperazine], the EC50 is reported as 1.34 µg/mL.
Compound `CCCCCc1ccc(C(=O)N2CCN(c3nc(Cc4ccc(C)cc4)ns3)CC2C)cc1` (stereo not drawn) [Compound 134, 1-(4-pentylbenzoyl)-4-[3-(4-methylbenzyl)-1,2,4-thiadiazol-5-yl]-2-methylpiperazine] has an EC50 of 0.3 µg/mL.

Same assay, conditions: Table 3, tested according to the procedure of example 12
For `COc1ccc(S(=O)(=O)N2CCN(c3nc(Cc4cccc(OC)c4)ns3)CC2C)cc1` (stereo not drawn) [Compound 208, 1-[4-methoxyphenylsulfonyl]-4-[3-(3-methoxybenzyl)-1,2,4-thia-diazol-5-yl]-2-methyl-piperazine], the “% inh.” value was 92%.
With `O=S(=O)(c1cccs1)N1CCN(c2nc(Cc3ccc(F)cc3)ns2)CC1` [Example 50, 1-[thiophen-2-ylsulfonyl]-4-[3-(4-fluoro-benzyl)-1,2,4-thiadiazol-5-yl]piperazine] the “% inh.” value was 89%.

Same assay, conditions: paraquat-treated M17-SYNwt cells, dose response
With `Cc1cccc(C)c1NC(=O)N1CCN(c2nc(Cc3ccc(F)cc3)ns2)CC1C` (stereo not drawn) [Compound 19, N-(2,6-dimethylphenyl)-4-[3-(4-fluorobenzyl)-1,2,4-thiadiazol-5-yl]-2-methylpiperazine-1-carboxamide] the “reduction of LDH activity in the medium (inhibition of α-synuclein mediated toxicity), FIG. 2” value was “inhibition of α-synuclein mediated toxicity; also recorded: able, in a dose-dependent manner, to reduce LDH activity in the medium”.

Same assay, conditions: percent inhibition of synuclein cytotoxicity, LDH release, paraquat-treated M17-SYNwt cells, at most effective concentration of test cmpd
For `CCOc1ccc(NC(=O)N2CCN(c3nc(Cc4ccc(F)cc4)ns3)CC2C)cc1` (stereo not drawn) [Compound 14, N-(4-ethoxyphenyl)-4-[3-(4-fluorobenzyl)-1,2,4-thiadiazol-5-yl]-2-methylpiperazine-1-carboxamide], the “% I” value was 70%.
With `O=C(c1ccccc1)N1CCN(c2nc(Cc3ccc(F)cc3)ns2)CC1` [Compound 181, 1-benzoyl-4-[3-(4-fluorobenzyl)-1,2,4-thiadiazol-5-yl]piperazine] the “% I” value was 60%.
In the case of `Cc1ccc(Cc2nsc(N3CCN(C/C=C/c4ccccc4)CC3)n2)cc1` [Compound 91, 1-[3-phenylprop-2-enyl]-4-[3-(4-methylbenzyl)-1,2,4-thiadiazol-5-yl]piperazine], the “% I” value is reported as 90%.
For `CC1CN(c2nc(Cc3ccc(F)cc3)ns2)CCN1S(=O)(=O)c1ccc(C(C)(C)C)cc1` (stereo not drawn) [Compound 54, 1-[4-tert-butylphenylsulfonyl]-4-[3-(4-fluorobenzyl)-1,2,4-thiadiazol-5-yl]-2-methylpiperazine], the “% I” value was 60%.
For `CC(C)(C)c1ccc(S(=O)(=O)N2CCN(c3nc(Cc4ccc(F)cc4)ns3)CC2)cc1` [Compound 61, 1-[4-ter-butylphenylsulfonyl]-4-[3-(4-fluorobenzyl)-1,2,4-thiadiazol-5-yl]piperazine], the “% I” value was 47%.
For `O=S(=O)(Cc1ccccc1)N1CCN(c2nc(Cc3ccc(Cl)cc3)ns2)CC1` [Compound 76, 1-(benzylsulfonyl)-4-[3-(4-chlorobenzyl)-1,2,4-thiadiazol-5-yl]piperazine], the “% I” value was 40%.
For `COc1ccc(S(=O)(=O)N2CCN(c3nc(Cc4ccc(F)c(C)c4)ns3)CC2)cc1` [Compound 204], the “% I” value was 90%.
In the case of `O=C(NCCN1CCN(c2nc(Cc3ccc(F)cc3)ns2)CC1)c1ccc(F)cc1` [Compound 102, 4-fluoro-N-{2-[4-[3-(4-fluorobenzyl)-1,2,4-thiadiazol-5-yl]piperazin-1-yl]ethyl}benzamide], the “% I” value is reported as 80%.
`Cc1ccc(Cc2nsc(N3CCN(C(=O)c4ccc(Br)cc4)CC3)n2)cc1` [Compound 164, 1-(4-bromobenzoyl)-4-[3-(4-methylbenzyl)-1,2,4-thiadiazol-5-yl]piperazine] was tested, and the “% I” value was 60%.
With `CCCCS(=O)(=O)N1CCN(c2nc(Cc3ccc(Cl)cc3)ns2)CC1` [Compound 81, 1-(butylsulfonyl)-4-[3-(4-chlorobenzyl)-1,2,4-thiadiazol-5-yl]piperazine] the “% I” value was 80%.
With `O=C(c1cccc(F)c1)N1CCN(c2nc(Cc3ccc(Cl)cc3)ns2)CC1` [Compound 157, 1-(3-fluorobenzoyl)-4-[3-(4-chlorobenzyl)-1,2,4-thiadiazol-5-yl]piperazine] the “% I” value was 70%.
`CC1CN(c2nc(Cc3ccc(F)cc3)ns2)CCN1C(=O)Nc1ccc(F)c(F)c1` (stereo not drawn) [Compound 26, N-(3,4-difluorophenyl)-4-[3-(4-fluorobenzyl)-1,2,4-thiadiazol-5-yl]-2-methylpiperazine-1-carboxamide] was tested, and the “% I” value was 70%.
`CC1CN(c2nc(Cc3ccc(F)cc3)ns2)CCN1C(=O)c1cccc(C(F)(F)F)c1` (stereo not drawn) [Compound 145, 1-(3-trifluoromethylbenzoyl)-4-[3-(4-fluorobenzyl)-1,2,4-thiadiazol-5-yl]-2-methylpiperazine] was tested, and the “% I” value was 60%.
In the case of `CCC(=O)Oc1ccc(S(=O)(=O)N2CCN(c3nc(Cc4ccc(F)cc4)ns3)CC2)cc1` [Compound 200, 1-(4-propionyloxy)benzene-sulfonyl-4-[3-(4-fluoro-benzyl)-1,2,4-thiadiazol-5-yl]piperazine], the “% I” value is reported as 80%.
`CCCCCc1ccc(C(=O)NCCN2CCN(c3nc(Cc4ccc(F)cc4)ns3)CC2)cc1` [Compound 94, 4-pentyl-N-{2-[4-[3-(4-fluorobenzyl)-1,2,4-thiadiazol-5-yl]piperazin-1-yl]ethyl}benzamide] was tested, and the “% I” value was 90%.
In the case of `CCCCCCCCS(=O)(=O)N1CCN(c2nc(Cc3ccc(C)cc3)ns2)CC1` [Compound 82, 1-(octylsulfonyl)-4-[3-(4-methylbenzyl)-1,2,4-thiadiazol-5-yl]piperazine], the “% I” value is reported as 50%.
For `O=C(Cc1ccc(F)cc1)NCCN1CCN(c2nc(Cc3ccc(F)cc3)ns2)CC1` [Compound 107, 2-(4-fluorophenyl)-N-{2-[4-[3-(4-fluorobenzyl)-1,2,4-thiadiazol-5-yl]piperazin-1-yl]ethyl}acetamide], the “% I” value was 80%.
`CC1CN(c2nc(Cc3ccc(F)cc3)ns2)CCN1S(=O)(=O)c1cccc(C(F)(F)F)c1` (stereo not drawn) [Compound 46, 1-[3-trifluorophenylsulfonyl]-4-[3-(4-fluorobenzyl)-1,2,4-thiadiazol-5-yl]-2-methylpiperazine] was tested, and the “% I” value was 64%.

What follows are compounds tested on dopaminergic substantia nigra neurons (assay: In vivo inhibition of paraquat-triggered loss of substantia nigra neurons (TH immunohistochemistry)). Conditions: mice, paraquat intraperitoneal, compound not higher than 20 mg/kg body weight/day, 8 weeks, versus vehicle.
Experimental: In order to model neuronal loss in the substantia nigra region of the brain, mice were treated with paraquat (intraperitoneal) at a dose not higher than 8 mg/kg/day for a continuous period of 15-100 days. These mice were also chronically co-treated during that period with: • compound 60 (1-[4-methoxyphenylsulfonyl]-4-[3-(4-methylbenzyl)-1,2,4-thiadiazol-5-yl]-2-methylpiperazine), or • compound 32 (1-[4-methoxyphenylsulfonyl]-4-[3-(4-fluorobenzyl)-1,2,4-thiadiazol-5-yl]piperazine), or • compound 53 (1-[4-methoxyphenylsulfonyl]-4-[3-(3-methoxy-benzyl)-1,2,4-thiadiazol-5-yl]piperazine), each being administered at a dose not higher than 20 mg/kg body weight/day), or by vehicle only (no active compound). Mice treatment by means of vehicle or a compound of the invention started 2 days before administration of paraquat.
At the end of the treatment period, mice were sacrificed and the corresponding brains were used for immunohistochemical analysis. […] Using antibodies raised against tyrosin hydroxylase (anti-tyrosin hydroxylase), tyrosine hydroxylase containing neurons in the brains were detected.
Three groups of mice were treated with either paraquat and compound 53 (group 3; n=6), or paraquat and vehicle of compound 53 (group 2; n=4), or vehicle paraquat and vehicle of compound 53 (group 1; n=3). […] Per mouse, the median % TH-positive areas (of the substantia nigra regions) was determined. […]
`COc1ccc(S(=O)(=O)N2CCN(c3nc(Cc4cccc(OC)c4)ns3)CC2)cc1` [Compound 53, 1-[4-methoxyphenylsulfonyl]-4-[3-(3-methoxybenzyl)-1,2,4-thiadiazol-5-yl]piperazine] was tested, and the “protection of TH-positive substantia nigra area against paraquat-triggered degeneration” value was “inhibition of paraquat-triggered degeneration of substantia nigra cells; also recorded: protects dopaminergic substantia nigra neurons against paraquat-triggered degeneration”.
